Tests used:
[1] = test system: morningglory; assay: Test B pre/postemergence morningglory; format: in vivo, Ipomoea hederacea
How it was run: (§1)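 Herbicidal effect was estimated by eye on a ten-point control scale after plants spent twelve to sixteen days in a greenhouse following soil or foliar treatment. Foliar sprays targeted plants at one to four leaves; all doses were formulated in a non-phytotoxic solvent with surfactant.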

[2] = test system: soybean; assay: Test B pre/postemergence soybean; format: in vivo, Glycine max
How it was run: as §1

[3] = test system: velvetleaf; assay: Test B pre/postemergence velvetleaf; format: in vivo, Abutilon theophrasti
How it was run: as §1

[4] = test system: corn; assay: Test B pre/postemergence corn; format: in vivo, Zea mays
How it was run: as §1

[5] = test system: rice; assay: Test B flood test rice; format: in vivo, Oryza sativa
How it was run: (§2)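 Each value is a visual injury score relative to controls, with 10 meaning complete control and 0 no effect. Evaluation took place twelve to sixteen days after the 2-leaf-stage plants were treated and kept in the greenhouse.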

[6] = test system: rape; assay: Test B pre/postemergence rape; format: in vivo, Brassica napus
How it was run: as §1

[7] = test system: bamyardgrass; assay: Test B flood test barnyardgrass; format: in vivo, Echinochloa crus-galli
How it was run: as §2

[8] = test system: sugar beet; assay: Test B pre/postemergence sugar beet; format: in vivo, Beta vulgaris
How it was run: as §1

[9] = test system: pigweed; assay: Test B pre/postemergence pigweed; format: in vivo, Amaranthus retroflexus
How it was run: as §1

[10] = test system: blackgrass; assay: Test B pre/postemergence blackgrass; format: in vivo, Alopecurus myosuroides
How it was run: as §1

[11] = test system: duck salad; assay: Test B flood test duck salad; format: in vivo, Heteranthera limosa
How it was run: as §2

[12] = test system: giant foxtail; assay: Test B pre/postemergence giant foxtail; format: in vivo, Setaria faberii
How it was run: as §1

[13] = test system: bedstraw; assay: Test B pre/postemergence bedstraw; format: in vivo, Galium aparine
How it was run: as §1

[14] = test system: surinam grass; assay: Test B pre/postemergence surinam grass; format: in vivo, Brachiaria decumbens
How it was run: as §1

[15] = test system: smallflower flatsedge; assay: Test B flood test smallflower flatsedge; format: in vivo, Cyperus difformis
How it was run: as §2

[16] = test system: purple nutsedge; assay: Test B pre/postemergence purple nutsedge; format: in vivo, Cyperus rotundus
How it was run: as §1

[17] = Preemergence, Rate 62 g/ha, scale of 0 to 10 where 0 is no effect and 10 is complete control
[18] = Preemergence, Rate 250 g/ha, scale of 0 to 10 where 0 is no effect and 10 is complete control
[19] = Preemergence, Rate 500 g/ha, scale of 0 to 10 where 0 is no effect and 10 is complete control
[20] = Rate 125 g/ha, Postemergence, scale of 0 to 10 where 0 is no effect and 10 is complete control
[21] = Rate 125 g/ha, Preemergence, scale of 0 to 10 where 0 is no effect and 10 is complete control
[22] = Rate 250 g/ha, Postemergence, scale of 0 to 10 where 0 is no effect and 10 is complete control
[23] = Rate 500 g/ha, Postemergence, scale 0 to 10, 0 no effect, 10 complete control
[24] = Rate 62 g/ha, Postemergence, scale of 0 to 10 where 0 is no effect and 10 is complete control
[25] = Rate 62 g/ha, headed Pre-emergence (flood test species), scale 0 to 10 (0 no effect, 10 complete control)
[26] = Rate 125 g/ha, Pre-emergence, flood test species, scale 0 to 10 where 0 is no effect and 10 is complete control
[27] = Rate 250 g/ha, Pre-emergence, flood-test species, scale 0 to 10, 0 is no effect, 10 is complete control
[28] = Rate 500 g/ha, Pre-emergence, flood test species, scale 0 to 10 (0 no effect, 10 complete control)
[29] = Rate 62 g/ha, Postemergence, scale 0 to 10, 0 no effect, 10 complete control

Cc1ccccc1-n1c(=O)on(C(=O)N(c2cccc(F)c2)C(C)C)c1=O [Compound 269]
2: Blackgrass plant response rating [10, 21] | Plant response rating, Blackgrass [10, 22] | Giant foxtail plant response rating [12, 23]
4: Plant response rating, Soybean [2, 19] | Plant response rating, Sugarbeets [8, 19] | Redroot pigweed plant response rating [9, 18] | Plant response rating, Redroot pigweed [9, 19] | Redroot pigweed plant response rating [9, 20] | Bedstraw plant response rating [13, 20] | Plant response rating, Bedstraw [13, 22]
6: Redroot pigweed plant response rating [9, 23] | Giant foxtail plant response rating [12, 21] | B. signalgrass plant response rating [14, 18] | B. signalgrass plant response rating [14, 21]
3: Morningglory plant response rating [1, 20] | Plant response rating, Soybean [2, 22] | Soybean plant response rating [2, 23] | Plant response rating, Velvetleaf [3, 22] | Velvetleaf plant response rating [3, 23] | Blackgrass plant response rating [10, 18] | Giant foxtail plant response rating [12, 17]
7: Morningglory plant response rating [1, 23] | Plant response rating, Blackgrass [10, 19] | Bedstraw plant response rating [13, 23] | Plant response rating, B. signalgrass [14, 19]
0: Morningglory plant response rating [1, 17] | Morningglory plant response rating [1, 18] | Plant response rating, Morningglory [1, 19] | Morningglory plant response rating [1, 21] | Soybean plant response rating [2, 17] | Soybean plant response rating [2, 18] | Soybean plant response rating [2, 21] | Velvetleaf plant response rating [3, 17] | Velvetleaf plant response rating [3, 18] | Plant response rating, Velvetleaf [3, 19] | Velvetleaf plant response rating [3, 20] | Velvetleaf plant response rating [3, 21] | Corn plant response rating [4, 17] | Corn plant response rating [4, 18] | Plant response rating, Corn [4, 19] | Corn plant response rating [4, 24] | Corn plant response rating [4, 20] | Corn plant response rating [4, 21] | Plant response rating, Corn [4, 22] | Corn plant response rating [4, 23] | Rice plant response rating [5, 25] | Rice plant response rating [5, 26] | Rice plant response rating [5, 27] | Rice plant response rating [5, 28] | Rape plant response rating [6, 17] | Rape plant response rating [6, 18] | Plant response rating, Rape [6, 19] | Rape plant response rating [6, 20] | Rape plant response rating [6, 21] | Plant response rating, Rape [6, 22] | Rape plant response rating [6, 23] | Barnyardgrass plant response rating [7, 25] | Barnyardgrass plant response rating [7, 26] | Barnyardgrass plant response rating [7, 27] | Barnyardgrass plant response rating [7, 28] | Sugarbeets plant response rating [8, 17] | Sugarbeets plant response rating [8, 18] | Sugarbeets plant response rating [8, 20] | Sugarbeets plant response rating [8, 21] | Plant response rating, Sugarbeets [8, 22] | Sugarbeets plant response rating [8, 23] | Redroot pigweed plant response rating [9, 17] | Redroot pigweed plant response rating [9, 21] | Blackgrass plant response rating [10, 17] | Blackgrass plant response rating [10, 24] | Blackgrass plant response rating [10, 20] | Ducksalad plant response rating [11, 25] | Ducksalad plant response rating [11, 26] | Ducksalad plant response rating [11, 27] | Ducksalad plant response rating [11, 28] | Giant foxtail plant response rating [12, 20] | Plant response rating, Giant foxtail [12, 22] | Bedstraw plant response rating [13, 17] | Bedstraw plant response rating [13, 18] | Plant response rating, Bedstraw [13, 19] | Bedstraw plant response rating [13, 21] | B. signalgrass plant response rating [14, 17] | B. signalgrass plant response rating [14, 24] | B. signalgrass plant response rating [14, 20] | Plant response rating, B. signalgrass [14, 22] | B. signalgrass plant response rating [14, 23] | S. Flatsedge plant response rating [15, 25] | S. Flatsedge plant response rating [15, 26] | S. Flatsedge plant response rating [15, 27] | S. Flatsedge plant response rating [15, 28] | Nutsedge plant response rating [16, 17] | Nutsedge plant response rating [16, 20] | Nutsedge plant response rating [16, 21] | Plant response rating, Nutsedge [16, 22] | Nutsedge plant response rating [16, 23]
1: Soybean plant response rating [2, 20]
5: Plant response rating, Morningglory [1, 22] | Plant response rating, Redroot pigweed [9, 22] | Blackgrass plant response rating [10, 23]
10: Giant foxtail plant response rating [12, 18]

CC(C)N(C(=O)n1oc(=O)n(C2CCCC2)c1=O)c1ccc(Cl)cc1 [Compound 282]
6: Morningglory plant response rating [1, 29] | Morningglory plant response rating [1, 20] | Plant response rating, Rape [6, 22] | Sugarbeets plant response rating [8, 20] | Redroot pigweed plant response rating [9, 20] | Redroot pigweed plant response rating [9, 21]
0: Morningglory plant response rating [1, 17] | Morningglory plant response rating [1, 18] | Plant response rating, Morningglory [1, 19] | Morningglory plant response rating [1, 21] | Soybean plant response rating [2, 17] | Soybean plant response rating [2, 18] | Plant response rating, Soybean [2, 19] | Soybean plant response rating [2, 21] | Velvetleaf plant response rating [3, 17] | Velvetleaf plant response rating [3, 18] | Plant response rating, Velvetleaf [3, 19] | Velvetleaf plant response rating [3, 29] | Velvetleaf plant response rating [3, 20] | Velvetleaf plant response rating [3, 21] | Corn plant response rating [4, 17] | Corn plant response rating [4, 18] | Plant response rating, Corn [4, 19] | Corn plant response rating [4, 29] | Corn plant response rating [4, 20] | Corn plant response rating [4, 21] | Plant response rating, Corn [4, 22] | Corn plant response rating [4, 23] | Rice plant response rating [5, 25] | Rice plant response rating [5, 26] | Rice plant response rating [5, 27] | Rice plant response rating [5, 28] | Rape plant response rating [6, 17] | Rape plant response rating [6, 21] | Sugarbeets plant response rating [8, 17] | Sugarbeets plant response rating [8, 18] | Sugarbeets plant response rating [8, 21] | Blackgrass plant response rating [10, 17] | Blackgrass plant response rating [10, 29] | Ducksalad plant response rating [11, 25] | Ducksalad plant response rating [11, 26] | Ducksalad plant response rating [11, 27] | Ducksalad plant response rating [11, 28] | Giant foxtail plant response rating [12, 29] | Giant foxtail plant response rating [12, 20] | Plant response rating, Giant foxtail [12, 22] | Bedstraw plant response rating [13, 17] | B. signalgrass plant response rating [14, 17] | B. signalgrass plant response rating [14, 29] | B. signalgrass plant response rating [14, 20] | Plant response rating, B. signalgrass [14, 22] | S. Flatsedge plant response rating [15, 25] | S. Flatsedge plant response rating [15, 26] | Nutsedge plant response rating [16, 17] | Nutsedge plant response rating [16, 18] | Nutsedge plant response rating [16, 29] | Nutsedge plant response rating [16, 20] | Nutsedge plant response rating [16, 21] | Plant response rating, Nutsedge [16, 22] | Nutsedge plant response rating [16, 23]
9: Morningglory plant response rating [1, 23] | Barnyardgrass plant response rating [7, 27] | Barnyardgrass plant response rating [7, 28] | Plant response rating, Redroot pigweed [9, 19]
4: Plant response rating, Soybean [2, 22] | Soybean plant response rating [2, 23] | Redroot pigweed plant response rating [9, 29] | Blackgrass plant response rating [10, 18] | S. Flatsedge plant response rating [15, 28]
10: Giant foxtail plant response rating [12, 18] | Plant response rating, Giant foxtail [12, 19]
1: Redroot pigweed plant response rating [9, 17] | Blackgrass plant response rating [10, 21] | B. signalgrass plant response rating [14, 21]
7: Plant response rating, Morningglory [1, 22] | Rape plant response rating [6, 18] | Barnyardgrass plant response rating [7, 25] | Barnyardgrass plant response rating [7, 26] | Plant response rating, Sugarbeets [8, 22] | Sugarbeets plant response rating [8, 23] | Redroot pigweed plant response rating [9, 18] | Plant response rating, Redroot pigweed [9, 22] | Plant response rating, Bedstraw [13, 22] | Plant response rating, B. signalgrass [14, 19]
3: Soybean plant response rating [2, 29] | Soybean plant response rating [2, 20] | Plant response rating, Velvetleaf [3, 22] | Velvetleaf plant response rating [3, 23] | Rape plant response rating [6, 20] | Plant response rating, Sugarbeets [8, 19]
5: Plant response rating, Blackgrass [10, 22] | Bedstraw plant response rating [13, 29] | Bedstraw plant response rating [13, 20]
2: Plant response rating, Rape [6, 19] | Rape plant response rating [6, 29] | Sugarbeets plant response rating [8, 29] | Blackgrass plant response rating [10, 20] | Giant foxtail plant response rating [12, 23] | Bedstraw plant response rating [13, 18] | Plant response rating, Bedstraw [13, 19] | B. signalgrass plant response rating [14, 18] | B. signalgrass plant response rating [14, 23] | S. Flatsedge plant response rating [15, 27]
8: Rape plant response rating [6, 23] | Redroot pigweed plant response rating [9, 23] | Plant response rating, Blackgrass [10, 19] | Blackgrass plant response rating [10, 23] | Giant foxtail plant response rating [12, 17] | Giant foxtail plant response rating [12, 21] | Bedstraw plant response rating [13, 23]
